Consider one substance from US20240238380A1, “COMPOSITION FOR COMBINATION THERAPY COMPRISING GROWTH DIFFERENTIATION FACTOR-15 VARIANT AND GLUCAGON-LIKE PEPTIDE-1 RECEPTOR AGONIST” (YUHAN CORPORATION, priority 2021, published 2024).

Marks after values point to notes of the source that are not given here.

Assay [1] concerns the target T1, GFRAL/RET/SRE-luc-overexpressing HEK293 cell line (Homo sapiens, UniProt Q6UXV0).
T1 construct: expressed in transfected cells; host or cells: HEK293 (human embryonic kidney 293), overexpressing GFRAL, RET and an SRE-luciferase reporter
Kind of assay: Functional activity of long-acting GDF15 fusion protein (Bright-Glo luciferase assay). Type of assay: cell-based. The following applies: relative to FM9-6+Fc_hole (Emax 100%). On the procedure:
Two variants (FM9+Fc_hole, FM11+Fc_hole) were compared and evaluated for GDF15 activity depending on the linker type and length. The GDF15 activity was measured using a Bright-Glo™ luciferase assay kit (Promega) and a GFRAL/RET/SRE-luc-overexpressing HEK293 cell line (Human embryonic kidney 293).
Specifically, 1×10^5 GFRAL/RET/SRE-luc-overexpressing HEK293 cells were dispended in DMEM containing 10% FBS in each well of a 96-well-plate, followed by culture at 37° C. and 5% CO2 for 24 hours. After 24 hours, each medium of the 96-well plate was replaced with 50 μl of a serum-free medium, followed by culture at 37° C. and 5% CO2 for 4 hours.
In addition, the long-acting GDF15 fusion protein produced in Example 1 was prepared by 3-fold serial dilution from a concentration of 2000 nM using a serum-free medium. Thereafter, 50 μl of the long-acting GDF15 fusion protein dilution was added to each well containing 50 μl of the replaced serum-free medium and the GERAL/RET/SRE-luc cell line so that the actual concentration thereof was serially diluted 3-fold from 1000 nM, followed by reaction at 37° C. and 5% CO2 for 4 hours. After 4 hours, each well was treated with 100 μl of a Bright-Glo™ solution prepared by adding a Bright-Glo™ buffer to a Bright-Glo™ substrate, followed by reaction at room temperature for 1 minute.
Thereafter, the reaction value (relative light units, RLU) was measured using a microplate reader (Perkin Elmer, Wallac Victor X5) capable of measuring luminescence. The results thereof are shown in Table 2 below and in FIGS. 1 and 2. Here, the functional activity of the long-acting GDF15 fusion protein depending on the GDF15 sequence, linker type, and length was compared based on the in-vitro GDF15 activity of FM9-6+Fc_hole (Emax 100%).

Assay [2] in a line: Inhibitory effect on gastric emptying (acetaminophen exposure) in normal rats (Example 8). Type of assay: in vivo. The following applies: for AUClast of acetaminophen (μg · min/mL), 3 hr / AUClast of acetaminophen (μg · min/mL), 24 hr / AUClast of acetaminophen (μg · min/mL), 72 hr: rats; for AUClast of acetaminophen (μg · min/mL), 3 hr: acetaminophen 3 hr after dose; for AUClast of acetaminophen (μg · min/mL), 24 hr: acetaminophen 24 hr after dose; for AUClast of acetaminophen (μg · min/mL), 72 hr: acetaminophen 72 hr after dose. On the procedure:
Therefore, this example was performed to investigate the inhibitory effect on gastric emptying when the novel long-acting GDF15 fusion protein was administered at the doses equal to the effective dose, higher than the maximum effective dose, or in combination with a GLP-1 receptor agonist to rats. 6-week-old male SD rats (Orient Bio, Republic of Korea) were purchased from Hallym Lab. Animal Inc., Republic of Korea. Animals were acclimated for 7 days. On the day of drug administration, the rats were grouped based on the average body weight of individual rats (n=5 per group) and fasted for at least 6 hours before oral administration of acetaminophen. Then, 0.1, 1, and 10 nmol/kg of FM9-6+Fc_hole, 10 nmol/kg of semaglutide (long-acting GLP-1 derivative, SEQ ID NO: 114), and combination of FM9-6+Fc_hole and semaglutide (1+10 nmol/kg) were subcutaneously administered. The semaglutide was Ozempic® (semaglutide) from Novo NorDisk. As a negative control drug, D-PBS (normal vehicle) was subcutaneously administered, and as a positive control drug, 30 mg/kg of loperamide was orally administered 45 minutes before acetaminophen administration. On 3, 24 and 72 hours after a single dose of the test articles, acetaminophen was orally administered at 100 mg/kg to rats, and blood samples were collected before and at 30, 60, 90, 120 and 150 minutes after acetaminophen administration. The plasma concentration of acetaminophen was analyzed, and the pharmacokinetic profiles and the systemic exposures of acetaminophen were compared to evaluate the inhibitory effect on gastric emptying among the groups.

The nature of assay [3]: Anti-obesity effect alone and in combination with semaglutide in diet-induced obese (DIO) mice (Example 4). Type of assay: in vivo. The following applies: for Change in body weight (%) vs. day 0, Maximum efficacy: 8 weeks. From the text:
Diet-induced obese (DIO) mice, obtained by feeding mice with high-fat food, are characterized by obesity, hyperglycemia, and insulin resistance. Diet-induced obese mice (Taconic, USA) resulting from feeding C57BL/6N mice with high-fat food (60 kcal % fat, Research Diets, Cat #D12492, USA) for 8 weeks were purchased from Raon Bio (Animal Inc., Republic of Korea). The diet-induced obese mice were additionally fed with 60% high-fat food for 5 weeks after arrival, and then used in the present test. On the day before drug treatment, the mice were grouped based on the average body weight of individual mice (n=6 per group), after which 10 and 30 nmol/kg of FM9-6+Fc_hole alone, 10 and 30 nmol/kg of semaglutide (long-acting GLP-1 derivative, SEQ ID NO: 114) alone as a control drug, and FM9-6+Fc_hole and semaglutide were administered subcutaneously every 2 days (Q2D) for a total of 8 weeks in a combination of 10+10 and 30+30 nmol/kg. The semaglutide that was used in the test was Ozempic® (semaglutide) from Novo NorDisk. Here, for vehicle treatment, DPBS (Dulbecco's phosphate-buffered saline, Gibco, USA) was subcutaneously administered every 2 days (Q2D). Body weight was measured every 2 days from the first day of drug treatment to day 54, and the results thereof are shown in Table 4 below.

T1 sequence (Q6UXV0 19-394, species assumed): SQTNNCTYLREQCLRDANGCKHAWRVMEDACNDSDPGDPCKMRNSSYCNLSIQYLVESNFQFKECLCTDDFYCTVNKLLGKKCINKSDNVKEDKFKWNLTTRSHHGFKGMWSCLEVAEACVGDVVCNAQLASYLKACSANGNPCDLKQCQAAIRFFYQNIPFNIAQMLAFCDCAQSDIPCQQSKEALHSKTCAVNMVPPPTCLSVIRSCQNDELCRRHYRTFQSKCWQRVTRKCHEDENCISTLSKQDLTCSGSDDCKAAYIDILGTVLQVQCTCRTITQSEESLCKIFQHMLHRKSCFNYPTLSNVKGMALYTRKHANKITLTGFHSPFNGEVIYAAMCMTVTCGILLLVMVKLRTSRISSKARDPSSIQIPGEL
T1 sequence (P07949 29-1114 partner, species assumed): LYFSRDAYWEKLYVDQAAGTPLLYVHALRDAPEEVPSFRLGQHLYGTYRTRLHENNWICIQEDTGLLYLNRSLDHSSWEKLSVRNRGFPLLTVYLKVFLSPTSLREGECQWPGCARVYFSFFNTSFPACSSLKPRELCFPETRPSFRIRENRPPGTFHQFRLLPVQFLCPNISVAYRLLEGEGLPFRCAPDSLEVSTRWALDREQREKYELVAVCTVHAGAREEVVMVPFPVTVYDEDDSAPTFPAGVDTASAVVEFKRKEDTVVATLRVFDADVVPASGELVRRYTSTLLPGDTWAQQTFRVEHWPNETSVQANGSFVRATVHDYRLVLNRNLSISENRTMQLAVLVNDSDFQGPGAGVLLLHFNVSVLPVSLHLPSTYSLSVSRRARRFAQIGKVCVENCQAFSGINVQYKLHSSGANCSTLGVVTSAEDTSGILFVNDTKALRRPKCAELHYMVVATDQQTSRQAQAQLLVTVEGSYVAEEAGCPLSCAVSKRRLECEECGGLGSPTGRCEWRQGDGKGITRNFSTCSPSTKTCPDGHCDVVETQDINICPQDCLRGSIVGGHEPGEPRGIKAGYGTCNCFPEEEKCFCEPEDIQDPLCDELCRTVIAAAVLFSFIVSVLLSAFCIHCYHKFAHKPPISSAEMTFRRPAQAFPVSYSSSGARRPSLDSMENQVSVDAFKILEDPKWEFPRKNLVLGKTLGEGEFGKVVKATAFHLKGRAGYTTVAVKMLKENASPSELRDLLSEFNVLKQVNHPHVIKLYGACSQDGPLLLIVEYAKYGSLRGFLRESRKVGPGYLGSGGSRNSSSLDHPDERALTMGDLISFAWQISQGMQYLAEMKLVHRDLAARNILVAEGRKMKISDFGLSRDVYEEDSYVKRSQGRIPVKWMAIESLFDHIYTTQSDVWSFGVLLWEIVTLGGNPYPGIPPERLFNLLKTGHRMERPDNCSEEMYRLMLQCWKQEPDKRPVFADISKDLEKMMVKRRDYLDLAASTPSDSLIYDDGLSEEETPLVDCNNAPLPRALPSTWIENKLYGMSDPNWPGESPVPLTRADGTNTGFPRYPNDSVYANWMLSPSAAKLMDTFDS

As to “FM9-6 + Fc_hole: long-acting GDF15 fusion protein (dimer): GDF15 ΔN2, S64R, IgG1 Fc_knob/Fc_hole, linker GS(EAAAK)5; SEQ ID NOs: 103 and 47”, the “Emax (%)” value in assay [1] amounted to 100.0%. In assay [2] (0.1 nmol/kg s.c. single dose), the “AUClast of acetaminophen (μg · min/mL), 3 hr” value (“AUClast … 3 hr” for short) is 1873.02 µg·min/mL; the “AUClast of acetaminophen (μg · min/mL), 24 hr” value (shortened to “AUClast … 24 hr”) came to 2652.42 µg·min/mL; the “AUClast of acetaminophen (μg · min/mL), 72 hr” value (“AUClast … 72 hr” for short) amounted to 3054.78 µg·min/mL. For the same substance, in assay [2] (1 nmol/kg s.c. single dose), the “AUClast … 3 hr” value worked out at 2615.40 µg·min/mL; the “AUClast … 24 hr” value was determined as 1878.30 µg·min/mL; the “AUClast … 72 hr” value was 3526.86 µg·min/mL. Further, in assay [2] (10 nmol/kg s.c. single dose), the “AUClast … 3 hr” value was determined as 1497.84 µg·min/mL; the “AUClast … 24 hr” value came out at 2385.36 µg·min/mL; the “AUClast … 72 hr” value was 3100.59 µg·min/mL. In assay [2] (rats, 0.1, 1, and 10 nmol/kg, 3, 24, and 72 hours after administration), the “gastric emptying (in words)” value is given as “did not affect gastric emptying”. Further, in assay [3] (10 nmol/kg s.c. Q2D), the “Change in body weight (%) vs. day 0, Maximum efficacy” value was −34.57 (On Day 54)**** % and the “Change in body weight (%) vs. day 0, Efficacy on Day 54” value is listed as −34.57**** %. In assay [3] (30 nmol/kg s.c. Q2D), the “Change in body weight (%) vs. day 0, Maximum efficacy” value is −35.07 (On Day 54)**** % and the “Change in body weight (%) vs. day 0, Efficacy on Day 54” value was −35.07**** %.
